For 26 molecules, IC50 results are on record in patent publication US10913738B2 (BRISTOL-MYERS SQUIBB COMPANY, priority 2017, dated 2021).

Where two headings read alike, the source gives them in different places.

Experiment [1] concerns the target T1, His-GST-TVMV-hRIPK1(1-324) (Homo sapiens, UniProt Q13546).
T1 construct: The coding region of human RIPK1(1-324) flanked by NdeI site at 5′ end; made in house; host or cells: Spodoptera frugiperda (Sf9) insect cells, baculovirus
T1 sequence (Q13546 1-324): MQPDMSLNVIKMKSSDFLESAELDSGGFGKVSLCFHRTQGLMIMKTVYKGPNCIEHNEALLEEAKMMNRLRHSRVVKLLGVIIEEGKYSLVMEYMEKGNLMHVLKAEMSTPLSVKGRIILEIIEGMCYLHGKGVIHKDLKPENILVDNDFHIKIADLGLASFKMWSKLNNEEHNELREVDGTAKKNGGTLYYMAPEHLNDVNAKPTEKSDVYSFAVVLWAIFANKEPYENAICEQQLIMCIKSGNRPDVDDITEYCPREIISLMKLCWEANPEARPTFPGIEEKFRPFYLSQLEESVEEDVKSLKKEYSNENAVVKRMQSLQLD
Briefly: RIPK1 HTRF Binding Assay.

The test system of experiment [2] is MLKL phosphorylation in HT29-L23 human colorectal adenocarcinoma cells. Briefly: MLKL Phosphorylation High-Content Assay. It counts as cell-based. The note with it: Homo sapiens. Summed up: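 IC50 and Ymax obtained by 4-parameter logistic fitting of MLKL phosphorylation, measured as mean circ-ring average intensity ratio from high-content images. Staining used an anti-phospho-S358 MLKL antibody overnight at 4° C., following six-hour cell incubation at 37° C.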

[3] abbreviates: x marks IC50 class <20 nM, read-out: RIPK1 HTRF binding <20 nM.
The mark [4] stands for this setting: x marks IC50 class 20-200 nM, read-out: pMLKL cell activity 20-200 nM.
Setting [5] is: x marks IC50 class <20 nM, read-out: pMLKL cell activity <20 nM.
[6] abbreviates: x marks IC50 class 20-200 nM, read-out: RIPK1 HTRF binding 20-200 nM.
[7] abbreviates: x marks IC50 class >200 nM, read-out: RIPK1 HTRF binding >200 nM.
The mark [8] stands for this setting: x marks IC50 class >200 nM, read-out: pMLKL cell activity >200 nM.

With `COc1ncc(-c2ccn3nc(N)nc3c2)cc1C(=O)NCc1ccccc1OCC1CCCC1` [Example 138, 5-{2-amino-[1,2,4]triazolo[1,5-a]pyridin-7-yl}-N-{[2-(cyclopentylmethoxy)phenyl]methyl}-2-methoxypyridine-3-carboxamide], the IC50 was below 20 nM in experiment [1] (setting [3]) and 20 to 200 nM in experiment [2] (setting [4]).

On to `COc1ncc(-c2ccn3nc(N)nc3c2)cc1C(=O)NCc1cccc(OC(C)C)c1` [Example 139, 5-{2-amino-[1,2,4]triazolo[1,5-a]pyridin-7-yl}-2-methoxy-N-{[3-(propan-2-yloxy)phenyl]methyl}pyridine-3-carboxamide], for which the IC50 in experiment [1] (setting [3]) is below 20 nM; in experiment [2] (setting [4]), 20 to 200 nM.

Consider `COc1ncc(-c2ccn3nc(N)nc3c2)cc1C(=O)NCc1ccccc1OC1CCOC1` (stereo not shown) [Example 140, 5-{2-amino-[1,2,4]triazolo[1,5-a]pyridin-7-yl}-2-methoxy-N-{[2-(oxolan-3-yloxy)phenyl]methyl}pyridine-3-carboxamide], for which the figures for the IC50 in experiment [1] (setting [3]) and in experiment [2] (setting [4]) were below 20 nM and 20 to 200 nM, respectively.

For `COc1ncc(-c2ccn3nc(N)nc3c2)cc1C(=O)NCc1ncccc1OC1CCCC1` [Example 141, 5-{2-amino-[1,2,4]triazolo[1,5-a]pyridin-7-yl}-N-{[3-(cyclopentyloxy)pyridin-2-yl]methyl}-2-methoxypyridine-3-carboxamide], the IC50 in experiment [1] (setting [3]) was below 20 nM; in experiment [2] (setting [4]), 20 to 200 nM.

`COc1ncc(-c2ccn3nc(N)nc3c2)cc1C(=O)NCc1cc(F)ccc1OC1CCCC1` [Example 142, 5-{2-amino-[1,2,4]triazolo[1,5-a]pyridin-7-yl}-N-{[2-(cyclopentyloxy)-5-fluorophenyl]methyl}-2-methoxypyridine-3-carboxamide]: the IC50 in experiment [1] (setting [3]) and in experiment [2] (setting [5]) was below 20 nM in each case.

In the case of `COc1ncc(-c2ccn3nc(N)nc3c2)cc1C(=O)NCc1ccccc1SC(C)C` [Example 143, 5-{2-amino-[1,2,4]triazolo[1,5-a]pyridin-7-yl}-2-methoxy-N-{[2-(propan-2-ylsulfanyl)phenyl]methyl}pyridine-3-carboxamide], the IC50 in experiment [1] (setting [3]) and in experiment [2] (setting [5]) was below 20 nM throughout.

Regarding `COc1ncc(-c2ccn3nc(N)nc3c2)cc1C(=O)NCc1ccccc1OC(C)C` [Example 144, 5-{2-amino-[1,2,4]triazolo[1,5-a]pyridin-7-yl}-2-methoxy-N-{[2-(propan-2-yloxy)phenyl]methyl}pyridine-3-carboxamide], the results for the IC50 in experiment [1] (setting [3]) and in experiment [2] (setting [4]) were below 20 nM and 20 to 200 nM, respectively.

As for `COc1ncc(-c2ccn3nc(N)nc3c2)cc1C(=O)NCc1ccc(F)cc1OCC1CC1` [Example 145, 5-{2-amino-[1,2,4]triazolo[1,5-a]pyridin-7-yl}-N-{[2-(cyclopropylmethoxy)-4-fluorophenyl]mehtyl}-2-methoxypyridine-3-carboxaamide], the IC50 in experiment [1] (setting [3]) was below 20 nM; in experiment [2] (setting [4]), 20 to 200 nM.

With `COc1ncc(-c2ccn3nc(N)nc3c2)cc1C(=O)NCc1c(F)cccc1OCC1CCC1` [Example 146, 5-{2-amino-[1,2,4]triazolo[1,5-a]pyridin-7-yl}-N-{[2-(cyclobutylmethoxy)-6-fluorophenyl]methyl}-2-methoxypyridine-3-carboxamide], the IC50 in experiment [1] (setting [3]) and in experiment [2] (setting [5]) was below 20 nM throughout.

As to `COc1ncc(-c2ccn3nc(N)nc3c2)cc1C(=O)NCc1c(F)cccc1OCC1CC1` [Example 147, 5-{2-amino-[1,2,4]triazolo[1,5-a]pyridin-7-yl}-N-{[2-(cyclopropylmethoxy)-6-fluorophenyl]methyl}-2-methoxypyridine-3-carboxamide], the IC50 in experiment [1] (setting [3]) and in experiment [2] (setting [5]) was below 20 nM each time.

For `COc1ncc(-c2ccn3nc(N)nc3c2)cc1C(=O)NCc1ccccc1OC1CCCC1` [Example 148, 5-{2-amino-[1,2,4]triazolo[1,5-a]pyridin-7-yl}-N-{[2-(cyclopentyloxy)phenyl]methyl}-2-methoxypyridine-3-carboxamide], the IC50 in experiment [1] (setting [3]) and in experiment [2] (setting [5]) was below 20 nM in each case.

Take `COc1ncc(-c2ccn3nc(N)nc3c2)cc1C(=O)NCc1ccccc1OCC1CCC1` [Example 149, 5-{2-amino-[1,2,4]triazolo[1,5-a]pyridin-7-yl}-N-{[2-(cyclobutylmethoxy)phenyl]methyl}-2-methoxypyridine-3-carboxamide]: the IC50 in experiment [1] (setting [3]) and in experiment [2] (setting [5]) was below 20 nM in each case.

As for `COc1ncc(-c2ccn3nc(N)nc3c2)cc1C(=O)NCc1ccccc1OC(F)(F)C(F)F` [Example 150, 5-{2-amino-[1,2,4]triazolo[1,5-a]pyridin-7-yl}-2-methoxy-N-{[2-(1,1,2,2-tetrafluoroethoxy)phenyl]methyl}pyridine-3-carboxamide], the figures for the IC50 in experiment [1] (setting [3]) and in experiment [2] (setting [4]) were below 20 nM and 20 to 200 nM, respectively.

For the molecule `COc1ncc(-c2ccn3nc(N)nc3c2)cc1C(=O)NCc1ccccc1Sc1ccccc1CO` [Example 151, 5-{2-amino-[1,2,4]triazolo[1,5-a]pyridin-7-yl}-N-[(2-{[2-(hydroxymethyl)phenyl]sulfanyl}phenyl)methyl]-2-methoxypyridine-3-carboxamide], the IC50 in experiment [1] (setting [3]) and in experiment [2] (setting [5]) was below 20 nM throughout.

For `COc1ncc(-c2ccn3nc(N)nc3c2)cc1C(=O)NCc1c[nH]nc1-c1ccccc1` [Example 152, 5-{2-amino-[1,2,4]triazolo[1,5-a]pyridin-7-yl}-2-methoxy-N-[(3-phenyl-1H-pyrazol-4-yl)methyl]pyridine-3-carboxamide], the IC50 in experiment [1] (setting [6]) and in experiment [2] (setting [4]) was 20 to 200 nM each time.

`CCOc1ccccc1CNC(=O)c1cc(-c2ccn3nc(N)nc3c2)cnc1OC` [Example 153, 5-{2-amino-[1,2,4]triazolo[1,5-a]pyridin-7-yl}-N-[(2-ethoxyphenyl)methyl]-2-methoxypyridine-3-carboxamide]: the IC50 was below 20 nM in experiment [1] (setting [3]) and 20 to 200 nM in experiment [2] (setting [4]).

On to `COc1ccccc1CNC(=O)c1cc(-c2ccn3nc(N)nc3c2)cnc1OC` [Example 154, 5-{2-amino-[1,2,4]triazolo[1,5-a]pyridin-7-yl}-2-methoxy-N-[(2-methoxyphenyl)methyl]pyridine-3-carboxamide], for which the IC50 in experiment [1] (setting [7]) and in experiment [2] (setting [8]) was above 200 nM throughout.

Regarding `COc1ncc(-c2ccn3nc(N)nc3c2)cc1C(=O)NCc1c(Cl)cccc1Oc1ccccc1` [Example 155, 5-{2-amino-[1,2,4]triazolo[1,5-a]pyridin-7-yl}-N-[(2-chloro-6-phenoxyphenyl)methyl]-2-methoxypyridine-3-carboxamide], the IC50 in experiment [1] (setting [3]) and in experiment [2] (setting [5]) was below 20 nM throughout.

`COc1ccccc1[C@@H](C)NC(=O)c1cc(-c2ccn3nc(N)nc3c2)cnc1OC` [Example 156, 5-{2-amino-[1,2,4]triazolo[1,5-a]pyridin-7-yl}-2-methoxy-N-[(1R)-1-(2-methoxyphenyl)ethyl]pyridine-3-carboxamide]: the IC50 in experiment [1] (setting [6]) was 20 to 200 nM; in experiment [2] (setting [8]), above 200 nM.

With `COc1ncc(-c2ccn3nc(N)nc3c2)cc1C(=O)NCc1ccccc1Oc1ccccc1` [Example 158, 5-{2-amino-[1,2,4]triazolo[1,5-a]pyridin-7-yl}-2-methoxy-N-[(2-phenoxyphenyl)methyl]pyridine-3-carboxamide], the IC50 in experiment [1] (setting [3]) and in experiment [2] (setting [5]) was below 20 nM in each case.

Consider `COc1ncc(-c2ccn3nc(N)nc3c2)cc1C(=O)N[C@H]1CCN(Cc2ccccc2)C1` [Example 159, 5-{2-amino-[1,2,4]triazolo[1,5-a]pyridin-7-yl}-N-[(3S)-1-benzylpyrrolidin-3-yl]-2-methoxypyridine-3-carboxamide], for which the IC50 is above 200 nM in experiment [1] (setting [7]) and 20 to 200 nM in experiment [2] (setting [4]).

Turning to `COc1ncc(-c2ccn3nc(N)nc3c2)cc1C(=O)NCc1cc(C(F)(F)F)ccc1Cl` [Example 161, 5-{2-amino-[1,2,4]triazolo[1,5-a]pyridin-7-yl}-N-{[2-chloro-5-(trifluoromethyl)phenyl]methyl}-2-methoxypyridine-3-carboxamide], the IC50 in experiment [1] (setting [3]) is below 20 nM; in experiment [2] (setting [4]), 20 to 200 nM.

Consider `COc1ncc(-c2ccn3nc(N)nc3c2)cc1C(=O)N(C)Cc1cccc(OC(F)(F)F)c1` [Example 162, 5-{2-amino-[1,2,4]triazolo[1,5-a]pyridin-7-yl}-2-methoxy-N-methyl-N-{[3-(trifluoromethoxy)phenyl]methyl}pyridine-3-carboxamide], for which the IC50 in experiment [1] (setting [3]) was below 20 nM; in experiment [2] (setting [4]) it was 20 to 200 nM.

As to `CC(C)Oc1c(F)cc(F)cc1CNC(=O)c1cc(-c2ccn3nc(N)nc3c2)cnc1Cl` [Example 163, 5-{2-amino-[1,2,4]triazolo[1,5-a]pyridin-7-yl}-2-chloro-N-{[3,5-difluoro-2-(propan-2-yloxy)phenyl]methyl}pyridine-3-carboxamide], the IC50 is below 20 nM in experiment [1] (setting [3]) and 20 to 200 nM in experiment [2] (setting [4]).

Consider `Nc1nc2cc(-c3cnc(Cl)c(C(=O)NCc4cccc(OCC5CC5)c4)c3)ccn2n1` [Example 164], for which the IC50 in experiment [1] (setting [6]) and in experiment [2] (setting [4]) was 20 to 200 nM throughout.

Consider `Nc1nc2cc(-c3cnc(Cl)c(C(=O)NCc4ccccc4OC4CCOC4)c3)ccn2n1` (stereo not shown) [Example 165], for which the IC50 in experiment [1] (setting [6]) and in experiment [2] (setting [4]) was 20 to 200 nM in each case.
